Values joined by “and” are separate entries in the source; they are usually repeats but may differ in a detail not shown here. Equal entries are not always repeated. “Also recorded” adds a separate entry of the source.

The subject of assay [1] is SS RBCs. The experiment in a line: pO2-dependent degree of sickling in Hemox Analyzer. Type of assay: cell-based, human. As to conditions: Hct 20%. On the procedure:
In a confirmatory study, a pO2 dependent degree of sickling of VZHE-039 at 1 and 2 mM doses, with Voxelotor as a control was performed using a Hemox analyzer. […] Oksenberg et al.reported similar observations with Voxelotor[28], where the compound lost its potent antisickling activity at low pO2 values.
The second study established pO2 dependent degree of sickling of VZHE-039, with Voxelotor as a control. Concurrently, blood samples, hematocrit 20%, were incubated without any drug (control) or with 1, or 2 mM VZHE-039 at 37 °C for 1 h. A second control sample was incubated with 2 mM Voxelotor. At conclusion, 100 uL aliquots of each suspension were mixed with 2.5 mL Hemox buffer (pH 7.4, supplemented with antifoam), and transferred into the sample chamber of the Hemox Analyzer. Compressed air was then flushed through the sample to ensure complete oxygenation (at 150 mmHg). Nitrogen gas was then introduced into the sample chamber, and 50 uL aliquots were obtained and fixed at defined pO2 values. At conclusion, all fixed samples were subjected to microscopic analysis for their degree of sickling, and results were plotted using Prism Graph Pad software. The experiments were conducted in three replicates on different days, and mean and standard deviation values are reported.

Assay [2] deals with T1, HbS (Homo sapiens, UniProt P69905).
T1 construct: whole blood suspensions from subjects with homozygous SCD (Hct of 20%); from tissue; host or cells: whole blood / red blood cells of patients with homozygous SS sickle cell disease; lysate for HPLC and OEC
T1 sequence (P69905 2-142): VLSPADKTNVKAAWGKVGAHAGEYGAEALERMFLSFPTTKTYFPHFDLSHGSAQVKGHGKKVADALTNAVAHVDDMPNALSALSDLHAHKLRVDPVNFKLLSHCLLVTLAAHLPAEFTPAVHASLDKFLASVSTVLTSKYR
T1 sequence (P68871 with tags, fused parts or gaps E7V partner): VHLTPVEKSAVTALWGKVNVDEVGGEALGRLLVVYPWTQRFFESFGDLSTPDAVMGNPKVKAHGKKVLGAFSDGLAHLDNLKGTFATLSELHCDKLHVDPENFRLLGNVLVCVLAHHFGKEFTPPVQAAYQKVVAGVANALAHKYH
The experiment in a line: Hb modification (HbS adduct formation) by cation-exchange HPLC of lysates from SS cells. It counts as cell-based. The conditions noted are these: SS cells, 20% hematocrit, HPLC of hemolysates. On the procedure: For our previously studied compounds (e.g., INN-312, TD-7, SAJ-310, INN-298) that incorporate methoxyPy substitution to vanillin analogs, we observed a significant increase in functional and biological activity as a result of increased protein interactions[31],[33],[35],[36]. We therefore expected similar effects for VZHE-039, which we tested by following VZHE-039 activity (measured by Hb adduct formation, P50-shift and RBC sickling inhibition) using SS blood. Briefly, we incubated 0.5, 1, and 2 mM concentrations of VZHE-039 with whole blood suspensions from subjects with homozygous SCD (Hct of 20%) under hypoxic conditions (2.5% O2/97.5% N2) at 37 °C for 2 h for expected peak adduct. Aliquot blood samples were drawn into a fixative (2% glutaraldehyde solution), and sickling was assessed by microscopy[31],[33],[35],[36]. Aliquot samples were also subjected to cation-exchange HPLC analyses to assess the degree of Hb modification to the high-affinity adduct form (Hb adduct formation), as well as standard O2 equilibrium curves (OEC) to assess P50-shifts using hemox analyzer[31],[33],[35],[36]. […] The improved potency of Voxelotor has been attributed to reduced binding stoichiometry, i.e. while Voxelotor binds Hb at a 1:1 ratio, VZHE-039 binds Hb at a 2:1 ratio. […] This observation, as will be discussed later is likely due to a meaningful contribution from the novel O2-independent antisickling activity as result of the strong contact with the αF-helix.
The effect of VZHE-039 on RBC sickling, Hb modification, and Hb oxygen equilibrium was studied utilizing samples from consented individuals with homozygous SCD following previous procedure. Briefly, blood suspended in Hemox buffer and supplemented with glucose and bovine serum albumin, to a final hematocrit of 20% were incubated under air in the absence or presence of 0.5 mM, 1 mM and 2 mM VZHE-039 at 37 °C for 1 h. This was followed by incubating the suspensions under hypoxic conditions (2.5% O2/97.5% N2) at 37 °C for 2 h. Aliquot samples were obtained and fixed with 2% glutaraldehyde solution without exposure to air, and then subjected to microscopic morphological analysis of bright field images (at × 40 magnification) of single layer cells on an Olympus BX40 microscope fitted with an Infinity 2 camera (Olympus), and the coupled Image Capture software. Leftover samples were washed in phosphate-buffer saline, and hemolyzed in hypotonic lysis buffer for subsequent Hb-modification and oxygen equilibrium analyses.
Finally, for the Hb adduct formation studies, the above clarified lysates were subjected to cation-exchange HPLC (Hitachi D-7000 Series, Hitachi Instruments, Inc., San Jose, CA), using a weak cation-exchange column (Poly CAT A: 30 mm × 4.6 mm, Poly LC, Inc., Columbia, MD). A commercial standard consisting of approximately equal amounts of composite HbF, HbA, HbS and HbC (Helena Laboratories, Beaumont, TX), was utilized as the reference for isotypes. The areas of new peaks, representing HbS adducts, were obtained, calculated as percentage fractions of total Hb area, and reported as levels of modified Hb.

The subject of assay [3] is SS cells. The assay can be described thus: Antisickling activity under anoxia (100% N2). The conditions noted are these: 2 mM, 100% N2 gas, 30 min. Type of assay: cell-based, human. An excerpt: Therefore, another objective in the targeted design of VZHE-039 was to complement its O2-dependent antisickling activity—common to this class of aromatic aldehydes—with an improved O2-independent antisickling activity through proximity-enhanced auxiliary interactions with the αF-helix. Findings from the VZHE-039 crystallographic studies indicate that we achieved the structural objective of enhanced interactions between the methylhydroxy substituent and the αF-helix. We further asked whether these enhanced interactions would translate to an improvement in the O2-independent antisickling activity—as hypothesized. We therefore explored the potential O2-independent activity of VZHE-039, by testing its antisickling properties under complete deoxygenated/anoxic conditions (i.e., 100% N2). […] For internal control purposes, aliquots from samples used for testing for antisickling studies at 2.5% O2 (see above) were also used for testing the antisickling effect of these compounds under 100% N2 gas, therefore, helping elucidate the antisickling effects due to O2-dependent activity of the compounds. Since this experimental design utilized aliquots of the same samples under different gas conditions, it ensured that the assay was free of any potential errors associated with variability in hematocrit and accuracy in drug concentrations.
We conducted two studies to test the antisickling property of VZHE-039 under anoxia to establish the secondary mechanism of action. In the first study, we conducted antisickling studies as described above and also previously reported (2.5% O2)[33], using 2 mM concentrations of VZHE-039, and the controls vanillin, TD-7 and Voxelotor. After 1 h, aliquot samples were fixed with 2% glutaraldehyde without exposure to air. Then the incubation chamber was opened and exposed to air for 15 min to ensure complete re-oxygenation and reversal of the sickled cells to normal round cells. Reversal was confirmed by microscopy. The incubation chamber was then closed, and the assay was repeated under 100% nitrogen gas for 30 min, at which point aliquots were obtained and fixed. Aliquot samples were then subjected to microscopic morphological analysis of bright field images as previously described. Resulting sickled cells (percentages) were compared across samples, and between aliquots of the same samples that had been obtained either under 2.5% oxygen or 100% nitrogen.

Take `O=Cc1c(O)cccc1OCc1cccc(CO)n1` [VZHE-039, 2-((6-(Hydroxymethyl)pyridin-2-yl)methoxy)-6-hydroxybenzaldehyde]: the “pO2-dependent sickling inhibition (in words)” value in assay [1] (1 mM) is “delay in initiation of sickling, as well as reduction in the total number of sickled cells; also recorded: significant delay in initiation of sickling”; in assay [1] (2 mM), “complete inhibition of sickling at the lowest recorded pO2; also recorded: complete sickling inhibition at all pO2”. Also, the “Hb Modification” value in assay [2] (0.5 mM) is 38% and 38.0 ± 7.2%; in assay [2] (1 mM) it was 72% and 72.6 ± 6.4%; in assay [2] (2 mM), 97.4 ± 6.7%. Further, the “Antisickling effect under anoxia (in words)” value in assay [3] was “inhibited sickling under complete anoxia; also recorded: identical antisickling effects for VZHE-039 under either hypoxia or anoxia”.

The record behind these values is publication PMC7679387, “VZHE-039, a novel antisickling agent that prevents erythrocyte sickling under both hypoxic and anoxic conditions” (Scientific Reports, 2020).
